The target in assay [1] is T1, HisRS 46-residue peptide (46-mer, Class II ATP binding site) (Escherichia coli, UniProt P60906).
T1 construct: gene hisS
Nature of the assay: fluorescence titration of ATP with peptide (Mildvan assay). The settings on record: pH 4.5; range printed jointly for the TrpRS and HisRS 46-mers, not assigned to either.

The target in assay [2] is T2, TrpRS 46-residue peptide (46-mer, Class I ATP binding site) (Geobacillus stearothermophilus, UniProt P00953).
T2 construct: gene trpS
Described as above.

The target of the next assay is T3, HisRS Urzyme (HisRS 2) (Escherichia coli, UniProt P60906).
T3 construct: gene hisS; HisRS invariant core (Motifs 1 and 2, 122-residue base fragment); MBP fusion, TEV cleavage
Nature of the assay: Michaelis-Menten steady-state kinetics of amino acid activation. The settings on record: ATP co-substrate; only kcat/KM free energies plotted. The format is biochemical.

The Kd is the free concentration of one partner at which half of the binding sites on the other are occupied at equilibrium, for simple one-to-one binding. The low end stands for higher affinity, the high end for lower affinity.

T2 sequence (P00953 1-46 limits assumed): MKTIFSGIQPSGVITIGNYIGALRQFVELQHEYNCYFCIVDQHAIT
T3 sequence (P60906 25-146): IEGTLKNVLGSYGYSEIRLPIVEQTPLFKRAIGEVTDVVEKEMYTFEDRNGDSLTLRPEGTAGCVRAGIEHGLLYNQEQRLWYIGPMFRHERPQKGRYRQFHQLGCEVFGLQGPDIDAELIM
T1 sequence (P60906 101-146): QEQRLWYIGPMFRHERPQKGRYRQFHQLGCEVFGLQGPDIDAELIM

As for `Nc1ncnc2c1ncn2[C@@H]1O[C@H](COP(=O)(O)OP(=O)(O)OP(=O)(O)O)[C@@H](O)[C@H]1O` [ATP], the Kd in assay [1] and in assay [2] was 10 to 65 µM each time.
For `N[C@@H](Cc1cnc[nH]1)C(=O)O` [histidine], the “Michaelis-Menten steady-state kinetics of amino acid activation” value at HisRS Urzyme (HisRS 2) was “they both preferentially activate amino acids similar to the original substrate (i.e., Leu and His)”.

Values taken from paper PMC4082485, “The Rodin-Ohno hypothesis that two enzyme superfamilies descended from one ancestral gene: an unlikely scenario for the origins of translation that will not be dismissed” (Biology Direct, 2014).
